Biological target: Reverse transcriptase protein (Human immunodeficiency virus 1, UniProt Q9WJQ1)
Test: In vitro Anti-HIV RT Assay
Source text: The HIV-1 RTwt inhibition assay was implemented using the template/primer hybrid poly(A)9oligo(dT)15, digoxigenin- and biotin-labeled nucleotides, an antibody to digoxigenin which is conjugated to peroxidase (anti-DIG-POD), and the peroxidase substrate ABTS for quantifying the RT polymerase activity. The incorporation quantities of the digoxigenin- and biotin-labeled dUTP into DNA represented the activity of HIV-1 RT. The IC50 value corresponds to the concentration of the tested compound required to inhibit the incorporation of the labeled dUTP by 50%. The procedure for RT assay was performed as described in the kit (Roche) protocol

Row | SMILES | IC50
1 | Cc1cc(C#N)cc(C)c1Oc1nc(Nc2ccc(C#N)cc2)nc(N)c1Br | 0.089 µM
2 | Cc1cc(C)cc(C(=O)c2cccnc2Oc2ccc(C#N)cc2)c1 [4-(3-(3,5-Dimethylbenzoyl)pyridin-2-yloxy)benzonitrile (6a1)] | 150 µM
3 | Cc1ccnc2c1NC(=O)c1cccnc1N2C1CC1 [BI-RG-587] | 0.58 µM
